The term pIC50 denotes the negative decadic logarithm of the IC50, by convention in mol/L.

The source of these data is ChEMBL document CHEMBL3352520, “CoMFA and CoMSIA analysis of ACE-inhibitory, antimicrobial and bitter-tasting peptides” (Eur J Med Chem, 2014).

Assay [1] relates to Pseudomonas aeruginosa. Nature of the assay: Antimicrobial activity against Pseudomonas aeruginosa relative to peptide Bac2A RLARIVVIRVAR sequence.
The subject of assay [2] is Pseudomonas aeruginosa. Put plainly: antimicrobial activity against Pseudomonas aeruginosa.
The target of assay [3] is Angiotensin-converting enzyme (Homo sapiens) (UniProt P12821). Nature of the assay: Inhibition of ACE (unknown origin). On the set-up: unit not given here.
Chain of Angiotensin-converting enzyme (Homo sapiens) (P12821 whole entry): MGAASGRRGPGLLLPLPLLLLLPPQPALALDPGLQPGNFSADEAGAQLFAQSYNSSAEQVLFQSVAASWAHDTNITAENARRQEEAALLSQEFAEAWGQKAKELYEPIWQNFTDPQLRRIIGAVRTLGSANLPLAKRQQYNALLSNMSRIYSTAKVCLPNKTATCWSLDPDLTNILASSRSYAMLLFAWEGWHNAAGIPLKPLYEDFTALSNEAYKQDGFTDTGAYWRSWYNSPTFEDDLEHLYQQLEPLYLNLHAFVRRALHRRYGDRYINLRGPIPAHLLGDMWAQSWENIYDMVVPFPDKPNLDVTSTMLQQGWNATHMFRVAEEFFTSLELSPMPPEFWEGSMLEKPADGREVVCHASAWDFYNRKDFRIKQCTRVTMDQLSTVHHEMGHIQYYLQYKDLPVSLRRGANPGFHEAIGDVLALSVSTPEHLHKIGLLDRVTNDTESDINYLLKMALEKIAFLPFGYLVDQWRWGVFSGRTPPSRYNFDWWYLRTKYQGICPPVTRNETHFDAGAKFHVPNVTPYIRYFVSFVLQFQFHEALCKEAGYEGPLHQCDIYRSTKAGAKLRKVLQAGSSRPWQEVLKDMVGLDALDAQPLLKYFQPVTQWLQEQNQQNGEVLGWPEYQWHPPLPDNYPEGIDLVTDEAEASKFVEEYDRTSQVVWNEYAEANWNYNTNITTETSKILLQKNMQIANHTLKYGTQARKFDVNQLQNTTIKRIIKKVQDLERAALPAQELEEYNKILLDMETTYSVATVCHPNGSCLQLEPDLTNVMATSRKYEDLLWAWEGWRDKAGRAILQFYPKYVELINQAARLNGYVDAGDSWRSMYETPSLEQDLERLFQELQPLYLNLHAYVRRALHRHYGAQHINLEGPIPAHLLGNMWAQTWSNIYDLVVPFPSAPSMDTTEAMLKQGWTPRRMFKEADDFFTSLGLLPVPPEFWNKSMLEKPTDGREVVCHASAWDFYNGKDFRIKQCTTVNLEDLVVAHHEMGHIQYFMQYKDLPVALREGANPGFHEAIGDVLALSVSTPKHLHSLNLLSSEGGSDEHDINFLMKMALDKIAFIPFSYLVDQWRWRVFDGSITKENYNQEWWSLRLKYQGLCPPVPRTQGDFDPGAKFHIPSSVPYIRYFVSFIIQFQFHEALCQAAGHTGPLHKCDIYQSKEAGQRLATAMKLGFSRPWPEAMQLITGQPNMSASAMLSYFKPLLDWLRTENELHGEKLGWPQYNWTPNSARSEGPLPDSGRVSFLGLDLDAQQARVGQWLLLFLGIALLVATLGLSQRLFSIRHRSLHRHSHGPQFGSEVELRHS

With `N=C(N)NCCC[C@H](NC(=O)[C@H](CCCCN)NC(=O)[C@H](CCCNC(=N)N)NC(=O)[C@@H](N)CCCNC(=N)N)C(=O)N[C@@H](Cc1c[nH]c2ccccc12)C(=O)N[C@@H](Cc1c[nH]c2ccccc12)C(=O)N[C@@H](Cc1c[nH]c2ccccc12)C(=O)N[C@@H](Cc1c[nH]c2ccccc12)C(=O)N[C@@H](Cc1c[nH]c2ccccc12)C(=O)O`, the Ratio IC50 in the assay with Pseudomonas aeruginosa [1] was found to be 0.43. This molecule also gave a negative logarithm of the IC50 (pIC50) with Pseudomonas aeruginosa [2] of 6.37. The matching figures for `N=C(N)NCCC[C@H](NC(=O)[C@H](CCCNC(=N)N)NC(=O)[C@@H](N)CCCNC(=N)N)C(=O)N[C@@H](Cc1c[nH]c2ccccc12)C(=O)N[C@@H](Cc1c[nH]c2ccccc12)C(=O)N[C@@H](Cc1c[nH]c2ccccc12)C(=O)N[C@@H](Cc1c[nH]c2ccccc12)C(=O)N[C@@H](Cc1c[nH]c2ccccc12)C(=O)N[C@@H](Cc1c[nH]c2ccccc12)C(=O)O`: 1.82 and 5.74. On the same counts, the results for H-IRRRKWWWW-OH are 0.21 and 6.68. On the same counts, the results for H-IRRRWWWIV-OH are 0.23 and 6.64. With H-KKRWLWWWR-OH, in the assay on Pseudomonas aeruginosa [1], the Ratio IC50 stood at 0.3. The molecule further gave a pIC50 in the assay on Pseudomonas aeruginosa [2] of 6.52. On the same counts, the results for H-KRKIWWWIR-OH are 0.28 and 6.55.

For the molecule H-KRRRIWWWK-OH, in the assay with Pseudomonas aeruginosa [1], the Ratio IC50 was determined as 0.4. In the assay with Pseudomonas aeruginosa [2], the negative logarithm of the IC50 (pIC50) was 6.4. On the same counts, the results for H-KRWWKWWRR-OH are 0.13 and 6.89. As for H-KRWWWWWKR-OH, the Ratio IC50 with Pseudomonas aeruginosa [1] is 0.22. In addition, the pIC50 with Pseudomonas aeruginosa [2] was 6.66.

As to H-KWWKIWWKR-OH, the Ratio IC50 in the assay with Pseudomonas aeruginosa [1] is 0.2. The pIC50 with Pseudomonas aeruginosa [2] is 6.7. Turning to H-LALPP-OH, in assay [3], the logIC50 turned out to be 2.9. H-LAYFYP-OH returned a logIC50 in assay [3] of 1.81. For H-LHLPAP-OH, the logIC50 in assay [3] is 0.78. Same read-out and setting: the result for H-LHLPGP-OH reads 0.28; that for H-LHLPLP-OH, 0.57; that for H-LHLPYP-OH, 0.36. In assay [3], H-LHLWLP-OH yielded a logIC50 of 0.95. On the same count and under the same terms, then H-LHLYLP-OH, with 1.28.

H-LRFILWWKR-OH: the Ratio IC50 with Pseudomonas aeruginosa [1] amounted to 0.88. This molecule also gave a pIC50 in the assay on Pseudomonas aeruginosa [2] of 6.06. The molecule H-PQPIP-OH showed a logIC50 in assay [3] of 2.53. On to H-PVPQP-OH, for which, in assay [3], the logIC50 was 2.04.

As to H-PVVVPP-OH, in assay [3], the logIC50 was 2.07. Turning to H-RHWKTWWKR-OH, the Ratio IC50 in the assay with Pseudomonas aeruginosa [1] came out at 0.95. Also, the pIC50 in the assay on Pseudomonas aeruginosa [2] came out at 6.02.

As for H-RIKRWWWWR-OH, the Ratio IC50 with Pseudomonas aeruginosa [1] stood at 0.31. The pIC50 in the assay on Pseudomonas aeruginosa [2] was 6.51. The matching figures for H-RIKVIWWWR-OH: 0.51 and 6.29.

In the case of H-RKRLKWWIY-OH, the Ratio IC50 in the assay with Pseudomonas aeruginosa [1] was 0.18. Also, in the assay on Pseudomonas aeruginosa [2], the pIC50 was determined as 6.74. The matching figures for H-RKWWRWWRW-OH: 0.31 and 6.51. Molecule H-RPQIPP-OH yielded a logIC50 in assay [3] of 1.66.

Take H-RRIWRWWWW-OH: in the assay on Pseudomonas aeruginosa [1], the Ratio IC50 amounted to 0.68. This molecule displayed a pIC50 in the assay with Pseudomonas aeruginosa [2] of 6.17. The matching figures for H-RWILWWWRI-OH: 25 and 4.6.

With H-RWRRKWWWW-OH, in the assay on Pseudomonas aeruginosa [1], the Ratio IC50 came to 0.39. For the same molecule, the pIC50 in the assay on Pseudomonas aeruginosa [2] stood at 6.41. On the same counts, the results for H-RWWRKWWIR-OH are 0.24 and 6.62.

Turning to H-SKVPP-OH, the logIC50 in assay [3] is 1.87. Molecule H-TKVIP-OH came in with a logIC50 in assay [3] of 2.6. For the molecule H-TRKVWWWRW-OH, the Ratio IC50 in the assay with Pseudomonas aeruginosa [1] was 0.76. The molecule also registered a pIC50 in the assay on Pseudomonas aeruginosa [2] of 6.12. For the molecule H-VHLAP-OH, the logIC50 in assay [3] turned out to be 0.65. Still for that read-out and setting: the result for H-VHLPP-OH reads 1.26; that for H-VIEKYP-OH, 2.24; that for H-VLIVP-OH, 2.23. Still for that read-out and setting: the result for H-VLPIP-OH reads 1.49; that for H-VLPYP-OH, 1.56; that for H-VRGPFP-OH, 2.77. H-WHGVRWWKW-OH: in the assay with Pseudomonas aeruginosa [1], the Ratio IC50 stood at 2.5. The molecule also returned a pIC50 with Pseudomonas aeruginosa [2] of 5.6.

Turning to H-WKRWKWWKR-OH, the Ratio IC50 in the assay with Pseudomonas aeruginosa [1] worked out at 0.25. Further, the pIC50 in the assay with Pseudomonas aeruginosa [2] was 6.6. On the same counts, the results for H-WRWWKWWRR-OH are 0.23 and 6.64.
